Reference: US20030212052A1, “Use of ursdeoxycholic acid for potentiation of the phototoxic effect of photodynamic therapy” (priority 2003, published 2003)

Experiments:
[1] = UDCA analogs/conjugates
hepatoma cell line = test: Promotion of PDT efficacy with lysosomal sensitizer in the hepatoma cell line; type: cell-based, murine; conditions: lysosomal sensitizer Npe6, hepatoma cell line
Method: Cell lines. Studies have been carried out with the murine leukemia L1210 and murine hepatoma hepa 1c1c7 cell lines along with primary rat hepatocyte cultures. Except for the latter, cells are grown in tissue culture. The L1210 cell line is grown in suspension culture in Fischer's medium containing 10% horse serum. The murine hepatoma 1c1c7 cell line was obtained from Dr. J. Whitlock, Jr. (Stanford University, CA). Cells were cultured on either commercially available plastic tissue cutureware, or poly-L-lysine coated glass coverslips or discs, and grown at 37° C. in a-minimal essential medium (aMEM) containing 5% fetal bovine serum and antibiotics. Cultures were passaged by incubation with a trypsin+EDTA solution (0.25% trypsin, 1 mM EDTA in Hank's Balanced Salts Solution). Determination of PDT efficacy. […] The cells were then lysed and levels of caspase-3 activity are assessed using a fluorescent plate reader. […] These substrates were cleaved by caspase-3 to form fluorescent products that were then detected. The plate readers take periodic readings of the emerging fluorescence, permitting a rate to be assessed. […] Protein levels in the lysates were also determined, so that the net result was in terms of caspase-3 activity per mg protein per minute. Photokilling was assessed by clonogenic assays involving the plating of known numbers of cells. […]

[2] = test system: murine hepatoma 1c1c7 cell line; test: Photokilling assessed by clonogenic assay after SnET2 PDT; type: cell-based; conditions: for number of colonies: irradiation 270 mJ/cm^2 at 630-700 nm, colonies counted four days later, mean±SD of 3-4 plates
Method: Cell lines. Studies have been carried out with the murine leukemia L1210 and murine hepatoma hepa 1c1c7 cell lines along with primary rat hepatocyte cultures. Except for the latter, cells are grown in tissue culture. The L1210 cell line is grown in suspension culture in Fischer's medium containing 10% horse serum. The murine hepatoma 1c1c7 cell line was obtained from Dr. J. Whitlock, Jr. (Stanford University, CA). Cells were cultured on either commercially available plastic tissue cutureware, or poly-L-lysine coated glass coverslips or discs, and grown at 37° C. in a-minimal essential medium (aMEM) containing 5% fetal bovine serum and antibiotics. Cultures were passaged by incubation with a trypsin+EDTA solution (0.25% trypsin, 1 mM EDTA in Hank's Balanced Salts Solution). Photokilling was assessed by clonogenic assays involving the plating of known numbers of cells. After several days in cell culture, the number of resulting colonies reflected the number of viable cells that survive PDT. Freshly prepared suspensions of 1c1c7 cells were plated in 60 mm culture dishes at a density of 500 cells/dish. Approximately 18 hours later cultures were treated with PDT sensitizer and/or UDCA. After 30 minutes of incubation culture dishes were washed once with complete medium and then refed with complete medium. Refed cultures were subsequently irradiated and returned to incubators. Cultures were refed every third day, and stained with crystal violet once colonies were of sufficient size to score. […] After irradiation of 270 mJ/cm^2 at 630-700 nm, the plates were incubated and the colonies were counted four days later. The data represents the mean±a standard deviation of three to four plates.

[3] = cited from earlier work
[4] = cited from earlier work; remark: listed apart in the source

## C[C@H](CCC(=O)NCCS(=O)(=O)O)[C@H]1CC[C@H]2[C@@H]3[C@@H](O)C[C@@H]4C[C@H](O)CC[C@]4(C)[C@H]3CC[C@]12C [UDCA-taurine]
[1]
  promotion of photodynamic therapeutic photokilling: effective

## C=Cc1c(C)c2cc3nc(c(CC(=O)N[C@@H](CC(=O)[O-])C(=O)[O-])c4nc(cc5[nH]c(cc1[nH]2)c(C)c5CC)C(C)=C4C(=O)[O-])[C@@H](CCC(=O)[O-])[C@@H]3C.[Na+].[Na+].[Na+].[Na+] [Npe6]
Hepatoma cell line
  promotion of photodynamic therapy efficacy by the potentiator: no evidence of promotion

## C[C@H](CCC(=O)O)[C@H]1CC[C@H]2[C@@H]3[C@@H](O)C[C@@H]4C[C@H](O)CC[C@]4(C)[C@H]3CC[C@]12C [UDCA, ursodeoxycholic acid]
[2]; UDCA 10 micromoles + SnET2 (2-mM)
  number of colonies: 12±5 colonies
[2]; UDCA 10 micromoles + SnET2 PDT
  colonies as percent: 20%
[2]; UDCA 100 micromoles + SnET2 (2-mM)
  number of colonies: 1±0.7 colonies
[2]; UDCA 100 micromoles + SnET2 PDT
  colonies as percent: 1.3%
[3]; once absorbed after oral administration, absence of liver disease
  hepatic extraction: about 50%
[3]; oral administration, passive diffusion
  absorption after oral administration: incomplete
[4]; chloraform
  solubility in chloraform: slightly soluble
[4]; ethanol and glacial acetic acid
  solubility in ethanol and glacial acetic acid: freely soluble
[4]; ether
  solubility in ether: sparingly soluble
[4]; water
  solubility in water: practically insoluble

## C[C@H](CCC(=O)NCC(=O)O)[C@H]1CC[C@H]2[C@@H]3[C@@H](O)C[C@@H]4C[C@H](O)CC[C@]4(C)[C@H]3CC[C@]12C [UDCA-glycine]
[1]
  promotion of photodynamic therapeutic photokilling: effective
